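Values below derive from 48-hour exposures of cells grown in 96-well plates, with endpoints linearly interpolated between the two concentrations bracketing the appropriate inhibition level. The concentration for 50% growth inhibition is given as GI50.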 Active and inactive are the calls of the source. Cut-off read from the data, not from the text of the source: active = GI50 up to about 1.1 µM and inactive = higher.
Key:
Assay in all cases: growth of human tumour cells (NCI), 48 h
786-0 = test system: 786-0
CCRF-CEM = test system: CCRF-CEM
EKVX = test system: EKVX
HCT-15 = test system: HCT-15
HL-60 = test system: HL-60
HOP-92 = test system: HOP-92
K562 = test system: K562
KM12 = test system: KM12
MCF7 = test system: MCF7
Malme-3M = test system: Malme-3M
SF-268 = test system: SF-268
SF-539 = test system: SF-539
SK-MEL-28 = test system: SK-MEL-28
SR = test system: SR
SW-620 = test system: SW-620
T47D = test system: T47D
UACC-62 = test system: UACC-62
UO-31 = test system: UO-31
BT-549 = test system: BT-549
IGROV-1 = test system: IGROV-1

SMILES	GI50 (786-0)	GI50 (CCRF-CEM)	GI50 (EKVX)	GI50 (HCT-15)	GI50 (HL-60)	GI50 (HOP-92)	GI50 (K562)	GI50 (KM12)	GI50 (MCF7)	GI50 (Malme-3M)	GI50 (SF-268)	GI50 (SF-539)	GI50 (SK-MEL-28)	GI50 (SR)	GI50 (SW-620)	GI50 (T47D)	GI50 (UACC-62)	GI50 (UO-31)	GI50 (BT-549)	GI50 (IGROV-1)
CC1S/C(=N\N=C2/C(=O)Nc3ccc(Br)cc32)N(C2CCCCC2)C1=O (stereo not given)	2.59 µM (inactive)	39.8 µM (inactive)	4.16 µM (inactive)	3.87 µM	5.85 µM (inactive)	7.46 µM (inactive)	> 100 µM (inactive)	4.65 µM (inactive)	12.5 µM (inactive)	9.23 µM (inactive)	6.38 µM (inactive)	3.66 µM (inactive)	6.08 µM (inactive)	5.06 µM (inactive)	11.7 µM (inactive)	3.96 µM (inactive)	2.01 µM (inactive)	1.06 µM (active)		
COC(=O)c1sc(=O)sc1SCc1cccc(CSc2sc(=O)sc2C(=O)OC)c1	17.6 µM (inactive)	50.5 µM (inactive)	42.8 µM (inactive)	> 100 µM		24.2 µM (inactive)	43.3 µM (inactive)	> 100 µM (inactive)	9.33 µM (inactive)	18.7 µM (inactive)	27.3 µM (inactive)		55.8 µM (inactive)		> 100 µM (inactive)	38.9 µM (inactive)	33.7 µM (inactive)	64.6 µM (inactive)	36.4 µM (inactive)	30.7 µM (inactive)
C[C@@H](Cl)[C@H]1CCCN(Cc2ccc(Br)cc2)C1	> 12.5 µM (inactive)	> 12.5 µM (inactive)	> 12.5 µM (inactive)	> 12.5 µM	> 12.5 µM (inactive)	> 12.5 µM (inactive)	> 12.5 µM (inactive)	> 12.5 µM (inactive)	> 12.5 µM (inactive)	> 12.5 µM (inactive)	> 12.5 µM (inactive)	> 12.5 µM (inactive)	> 12.5 µM (inactive)	> 12.5 µM (inactive)	> 12.5 µM (inactive)	> 12.5 µM (inactive)	> 12.5 µM (inactive)	> 12.5 µM (inactive)		> 12.5 µM (inactive)
O=[N+]([O-])c1ccc(CN(CCCl)OCCCl)cc1	> 100 µM (inactive)	35.5 µM (inactive)	92.7 µM (inactive)	91 µM	40 µM (inactive)		33.8 µM (inactive)	> 100 µM (inactive)	83.4 µM (inactive)	> 100 µM (inactive)	> 100 µM (inactive)	> 100 µM (inactive)	> 100 µM (inactive)	65 µM (inactive)	91.2 µM (inactive)	74.5 µM (inactive)	55.8 µM (inactive)	37.8 µM (inactive)	> 100 µM (inactive)	75.9 µM (inactive)
CSc1ncc2c(n1)C(C#N)C1Sc3ccccc3N1C2=O (stereo not given)	76.9 µM (inactive)		> 100 µM (inactive)	> 100 µM		80 µM (inactive)		> 100 µM (inactive)		> 100 µM (inactive)	44.9 µM (inactive)	37.3 µM (inactive)	> 100 µM (inactive)		> 100 µM (inactive)	> 100 µM (inactive)		> 100 µM (inactive)	> 100 µM (inactive)	> 100 µM (inactive)
O=C(c1ccco1)N(C(=S)OCc1ccccn1)c1ccccc1	> 100 µM (inactive)	69.8 µM (inactive)	13.3 µM (inactive)	> 100 µM	> 100 µM (inactive)		75.3 µM (inactive)	> 100 µM (inactive)	75.3 µM (inactive)	17.2 µM (inactive)	> 100 µM (inactive)	36 µM (inactive)	> 100 µM (inactive)	1.25 µM (inactive)	> 100 µM (inactive)	25.1 µM (inactive)	> 100 µM (inactive)	43.9 µM (inactive)	> 100 µM (inactive)	50.1 µM (inactive)
CS/C(=N\Nc1cnc2ccccc2n1)NS(=O)(=O)c1cc(C)c(Cl)cc1Cl	> 100 µM (inactive)	> 100 µM (inactive)	29 µM (inactive)	> 100 µM	88.7 µM (inactive)	15.5 µM (inactive)	> 100 µM (inactive)	> 100 µM (inactive)	65.6 µM (inactive)	> 100 µM (inactive)	> 100 µM (inactive)	> 100 µM (inactive)	> 100 µM (inactive)		> 100 µM (inactive)	> 100 µM (inactive)	50.7 µM (inactive)	33.9 µM (inactive)	> 100 µM (inactive)	21.1 µM (inactive)
OCC(O)COCn1nncc1Cn1ncc2c(SCc3ccccc3)ncnc21 (stereo not given)	> 100 µM (inactive)	> 100 µM (inactive)	> 100 µM (inactive)	> 100 µM				> 100 µM (inactive)	> 100 µM (inactive)		14.5 µM (inactive)	> 100 µM (inactive)	> 100 µM (inactive)		> 100 µM (inactive)	> 100 µM (inactive)	> 100 µM (inactive)	> 100 µM (inactive)	> 100 µM (inactive)	> 100 µM (inactive)

Reference: ChEMBL document CHEMBL1201862, “PubChem BioAssay data set” (2004)
